What was measured:
Test in all cases: relative viability (nuclei count vs DMSO), 5 days (fraction); higher = more cells survive
NCI-H2228 = system: NCI-H2228
Procedure, shortened: (§1)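 Lung cancer cell lines in 1536-well plates got either a single drug or a fixed anchor-drug dose together with five library-drug doses (not always all listed) in √10 steps, by pin tool, on the day after seeding. Nuclei were counted after 5 days, and relative viability is the treated-to-vehicle ratio of nuclei counts. Values are medians of duplicate plates.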

PC-3 [JPC-3] = system: PC-3 [JPC-3]
Procedure, shortened: as §1

NCI-H2405 = system: NCI-H2405
Procedure, shortened: as §1

NCI-H1792 = system: NCI-H1792
Procedure, shortened: as §1

HCC-15 = system: HCC-15
Procedure, shortened: as §1

NCI-H2087 = system: NCI-H2087
Procedure, shortened: as §1

COR-L 105 = system: COR-L 105
Procedure, shortened: as §1

NCI-H2009 = system: NCI-H2009
Procedure, shortened: as §1

CAL-12T = system: CAL-12T
Procedure, shortened: as §1

HARA = system: HARA
Procedure, shortened: as §1

NCI-H2170 = system: NCI-H2170
Procedure, shortened: as §1

NCI-H1651 = system: NCI-H1651
Procedure, shortened: as §1

NCI-H23 = system: NCI-H23
Procedure, shortened: as §1

LCLC-97TM1 = system: LCLC-97TM1
Procedure, shortened: as §1

201T = system: 201T
Procedure, shortened: as §1

HCC-827 = system: HCC-827
Procedure, shortened: as §1

NCI-H1395 = system: NCI-H1395
Procedure, shortened: as §1

UMC-11 = system: UMC-11
Procedure, shortened: as §1

LU99A = system: LU99A
Procedure, shortened: as §1

SK-MES-1 = system: SK-MES-1
Procedure, shortened: as §1

H3255 = system: H3255
Procedure, shortened: as §1

With `Oc1nc(-c2ccc(C(F)(F)F)cc2)nc2c1CSCC2` [XAV939] + CC1(C)CCC(c2ccc(Cl)cc2)=C(CN2CCN(c3ccc(C(=O)NS(=O)(=O)c4ccc(N[C@H](CCN5CCOCC5)CSc5ccccc5)c(S(=O)(=O)C(F)(F)F)c4)cc3)CC2)C1 [Navitoclax] (partner 0.5 µM) the relative viability (NCI-H2228; first compound 0.08 µM) was 1.13, the relative viability (NCI-H2228; first compound 0.253 µM) was 0.838 and the relative viability (NCI-H2228; first compound 0.8 µM) was 0.94. The relative viability (NCI-H2228; first compound 2.53 µM) was 1.1, the relative viability (PC-3 [JPC-3]; first compound 0.08 µM) was 0.728 and the relative viability (PC-3 [JPC-3]; first compound 0.253 µM) was 0.737. For the same molecule, the relative viability (PC-3 [JPC-3]; first compound 0.8 µM) was 0.814, the relative viability (PC-3 [JPC-3]; first compound 2.53 µM) was 0.724 and the relative viability (NCI-H2405; first compound 0.08 µM) was 0.945. For the same molecule, the relative viability (NCI-H2405; first compound 0.253 µM) was 0.762, the relative viability (NCI-H2405; first compound 0.8 µM) was 0.886 and the relative viability (NCI-H2405; first compound 2.53 µM) was 0.555. The relative viability (NCI-H1792; first compound 0.08 µM) was 0.595, the relative viability (NCI-H1792; first compound 0.253 µM) was 0.589 and the relative viability (NCI-H1792; first compound 0.8 µM) was 0.601. The relative viability (NCI-H1792; first compound 2.53 µM) was 0.572, the relative viability (HCC-15; first compound 0.08 µM) was 0.719 and the relative viability (HCC-15; first compound 0.253 µM) was 0.612. It also gave a relative viability (HCC-15; first compound 0.8 µM) of 0.678, a relative viability (HCC-15; first compound 2.53 µM) of 0.684 and a relative viability (NCI-H2087; first compound 0.08 µM) of 1.13. The relative viability (NCI-H2087; first compound 0.253 µM) was 0.668, the relative viability (NCI-H2087; first compound 0.8 µM) was 1 and the relative viability (NCI-H2087; first compound 2.53 µM) was 0.95. For the same molecule, the relative viability (COR-L 105; first compound 0.08 µM) was 0.754, the relative viability (COR-L 105; first compound 0.253 µM) was 0.62 and the relative viability (COR-L 105; first compound 0.8 µM) was 0.637. For the same molecule, the relative viability (COR-L 105; first compound 2.53 µM) was 0.458, the relative viability (NCI-H2009; first compound 0.08 µM) was 1.17 and the relative viability (NCI-H2009; first compound 0.253 µM) was 1.12. For the same molecule, the relative viability (NCI-H2009; first compound 0.8 µM) was 1.13, the relative viability (NCI-H2009; first compound 2.53 µM) was 1.06 and the relative viability (CAL-12T; first compound 0.08 µM) was 1.39. It also gave a relative viability (CAL-12T; first compound 0.253 µM) of 1.07, a relative viability (CAL-12T; first compound 0.8 µM) of 1.28 and a relative viability (CAL-12T; first compound 2.53 µM) of 1.03. It also gave a relative viability (HARA; first compound 0.08 µM) of 1.15, a relative viability (HARA; first compound 0.253 µM) of 0.609 and a relative viability (HARA; first compound 0.8 µM) of 1.17. It also gave a relative viability (HARA; first compound 2.53 µM) of 1.17, a relative viability (NCI-H2170; first compound 0.08 µM) of 0.427 and a relative viability (NCI-H2170; first compound 0.253 µM) of 0.441. For the same molecule, the relative viability (NCI-H2170; first compound 0.8 µM) was 0.501, the relative viability (NCI-H2170; first compound 2.53 µM) was 0.422 and the relative viability (NCI-H1651; first compound 0.08 µM) was 1.12. For the same molecule, the relative viability (NCI-H1651; first compound 0.253 µM) was 1.01, the relative viability (NCI-H1651; first compound 0.8 µM) was 0.995 and the relative viability (NCI-H1651; first compound 2.53 µM) was 0.894. For the same molecule, the relative viability (NCI-H23; first compound 0.08 µM) was 0.859, the relative viability (NCI-H23; first compound 0.253 µM) was 0.776 and the relative viability (NCI-H23; first compound 0.8 µM) was 0.531. It also gave a relative viability (NCI-H23; first compound 2.53 µM) of 0.755, a relative viability (LCLC-97TM1; first compound 0.08 µM) of 0.534 and a relative viability (LCLC-97TM1; first compound 0.253 µM) of 0.399. The relative viability (LCLC-97TM1; first compound 0.8 µM) was 0.621, the relative viability (LCLC-97TM1; first compound 2.53 µM) was 0.294 and the relative viability (201T; first compound 0.08 µM) was 1.21. For the same molecule, the relative viability (201T; first compound 0.253 µM) was 1.13, the relative viability (201T; first compound 0.8 µM) was 1.09 and the relative viability (201T; first compound 2.53 µM) was 1.16. It also gave a relative viability (HCC-827; first compound 0.08 µM) of 1.02, a relative viability (HCC-827; first compound 0.253 µM) of 1.02 and a relative viability (HCC-827; first compound 0.8 µM) of 0.975. For the same molecule, the relative viability (HCC-827; first compound 2.53 µM) was 1.04, the relative viability (NCI-H1395; first compound 0.08 µM) was 1.11 and the relative viability (NCI-H1395; first compound 0.253 µM) was 1.33. It also gave a relative viability (NCI-H1395; first compound 0.8 µM) of 1.2, a relative viability (NCI-H1395; first compound 2.53 µM) of 1.16 and a relative viability (UMC-11; first compound 0.08 µM) of 0.318. The relative viability (UMC-11; first compound 0.8 µM) was 0.3, the relative viability (UMC-11; first compound 2.53 µM) was 0.271 and the relative viability (LU99A; first compound 0.08 µM) was 0.939. It also gave a relative viability (LU99A; first compound 0.253 µM) of 0.708, a relative viability (LU99A; first compound 0.8 µM) of 0.683 and a relative viability (LU99A; first compound 2.53 µM) of 0.708. It also gave a relative viability (SK-MES-1; first compound 0.08 µM) of 1.21, a relative viability (SK-MES-1; first compound 0.253 µM) of 1.12 and a relative viability (SK-MES-1; first compound 0.8 µM) of 1.12. The relative viability (SK-MES-1; first compound 2.53 µM) was 1.14, the relative viability (H3255; first compound 0.08 µM) was 0.511 and the relative viability (H3255; first compound 0.253 µM) was 0.445. The relative viability (H3255; first compound 0.8 µM) was 0.403 and the relative viability (H3255; first compound 2.53 µM) was 0.366.

Source: the supplement of paper PMC10307832
